The test system of one test is mature murine skin. The test is described as follows: Histology of punch biopsies of treated murine skin (epidermal thickening, proliferation, keratinocyte differentiation). The class given is in vivo, mice. As to conditions: for basal cell turn over / formation of normally-functioning supra basal granular keratinocytes: applied to the skin of mice, all trans retinoic acid 0.1%, all trans retinol 1.0%. From the text:
Photomicrographs of murine tissue samples treated according to methods of the present invention are presented the figures. Differing amounts of inter-laminar keratinocyte differentiation were observed. In some cases, there is intra-laminar disruption, in which stratum corneum (SC) and granular layer (GL) are separated, indicating little granular keratinocyte formation and/or suppression of one or both of granular keratinocyte extracellular desmosomal proteins and/or reduced production of laminar granules (proteases, lipids). This was not considered an artifact of the micro-tome blade.
More particularly, histological observations, including degree of “keratinocyte differentiation” are described by reference to photomicrographs of retired breeder mice obtained from Charles River Laboratories, Inc. (Wilmington, Mass.). An area of approximately one square inch was shaved. Test compositions (e.g., control=carrier vehicle with ingredient known to be irritating; test=same carrier and known irritant from control+phospholipid) were administered in accordance with methods of the inventions. Punch biopsies of full thickness skin and subcutaneous fat were taken as follows: skin was swabbed with an antiseptic and injected with a local anaesthetic; an incision was made, and a tissue specimen was removed and preserved in 10% neutral buffered formalin at a volume of approximately ten times that of the tissue). Excision sites were sutured. The preserved tissues samples were sent to Louisiana State University, School of Veterinary Medicine for processing and analysis. More particularly, tissue was processed in graded alcohol [70% (v/v) ethanol, 90% (v/v) ethanol, absolute ethanol] followed by graded xylene [[…], absolute xylene]. Next the processed tissue was placed in blocks/molds filled with paraffin wax liquid, in an orientation with the epidermis on top, with ice on top to hold the tissue in place. Wax blocks were cooled in ice and sectioned at a thickness of 5-15 μm using a microtome with disposable blade (Leica Microtome Model RM2255). Microtomed sections were placed on adhesive slides, incubated at 37° C. for 24 hours (i.e., on slide racks), and then stored in slide containers at room temperature until H&E staining is performed to visualize histological microstructures. All histological samples were micro photographed at 400× under normal light with standard digital equipment. These photos were transferred to PHOTOSHOP® computer imaging software from Adobe Systems Pvt. Ltd., in which measurements of epidermal thickness, SC thickness, granulation, layering were determined.

For the next test, the system named is HBEGF. The test is described as follows: DNA microarray assay, expression of proliferative/growth-factor related genes. It counts as cell-based. As to conditions: DMSO delivered retinol at 5 ppm; retinyl linoleate and lysophospholipid concentrate at a ratio of 1:0.4.
For another test, the system named is TGF beta 1. The description is as above. The class given is cell-based. As to conditions: DMSO delivered retinol at 5 ppm; retinyl linoleate and lysophospholipid concentrate at a ratio of 1:0.4.
A further test concerns TGF alpha. Described as above. The note with it: DMSO delivered retinol at 5 ppm; retinyl linoleate and lysophospholipid concentrate at a ratio of 1:0.4. The class given is cell-based.
The subject of a further test is FGF. Described as above. The class given is cell-based. The note with it: DMSO delivered retinol at 5 ppm; retinyl linoleate and lysophospholipid concentrate at a ratio of 1:0.4.
A further test concerns CSF2. Described as above. As to conditions: DMSO delivered retinol at 5 ppm; retinyl linoleate and lysophospholipid concentrate at a ratio of 1:0.4. The class given is cell-based.
The mark [1] stands for this setting: FIG. 7, bioemulsion with 1% retinyl linoleate.
Where [2] appears, read: 1% in a bioemulsion applied once daily over three consecutive days.
[3] abbreviates: bioemulsion applied once daily over 4 consecutive days (retinyl phosphate 1%).
Where [4] appears, read: 1% in a bioemulsion applied once daily over 2 consecutive days.

`CC1=C(/C=C/C(C)=C/C=C/C(C)=C/C(=O)O)C(C)(C)CCC1` [all trans retinoic acid, Retinoic acid]: in the test on mature murine skin, the “basal cell turn over” value is reported as “stimulates” and the “formation of normally-functioning supra basal granular keratinocytes” value is “inhibits or suppresses”.

Consider `CCCCC/C=C\C/C=C\CCCCCCCC(=O)OC/C=C(C)/C=C/C=C(C)/C=C/C1=C(C)CCCC1(C)C` [retinyl linoleate, Retinyl linoleate], for which, in the test with mature murine skin (setting [1]), the SC density entry is “Increased”, the differentiation entry is on record as “without significant differentiation” and the proliferation result is reported as “Increased”.

For acetyl-n-phenylalanine retinoate, in the test with mature murine skin (setting [2]), the differentiation entry is given as “good” and the proliferation result is “good”.

Regarding `CC1=C(/C=C/C(C)=C\C=C\C(C)=C\COP(=O)(O)O)C(C)(C)CCC1` [retinyl phosphate], in the test on mature murine skin (setting [3]), the keratinocyte differentiation entry is on record as “de minimis” and the proliferation entry is “De minimis”.

As for `CC(C=CC1=C(C)CCCC1(C)C)=CC=CC(C)=CCOC(=O)CCC(=O)OCC=C(C)C=CC=C(C)C=CC1=C(C)CCCC1(C)C` [diretinyl succinate], in the test with mature murine skin (setting [3]), the keratinocyte differentiation result was “de minimis” and the proliferation result is “De minimis”.

On to `CC1=C(/C=C/C(C)=C/C=C/C(C)=C/CO)C(C)(C)CCC1` [DMSO Delivered Retinol, Retinol], for which the “HBEGF level of expression (change)” value with HBEGF is listed as −50%. In addition, the “TGF beta 1 level of expression (change)” value in the test with TGF beta 1 is on record as −50%. Moreover, the “TGF alpha level of expression (change)” value with TGF alpha is reported as “+200%”. The “FGF level of expression (change)” value in the test with FGF is given as −50%. Also, the “CSF2 level of expression (change)” value in the test with CSF2 was −25%. In the test with mature murine skin, the “basal cell turn over” value is “stimulates” and the “formation of normally-functioning supra basal granular keratinocytes” value is on record as “inhibits or suppresses”.

For the compound “Monoglyceryl retinoate [glyceryl mono retinoate]”, in the test with mature murine skin (setting [4]), the differentiation result is given as “excellent” and the proliferation entry is reported as “excellent”.

Take Glyceryl diretinoate: in the test on mature murine skin (setting [4]), the differentiation entry was “good” and the proliferation result is given as “good”.

For the origin of these results see US11173103B1, “Retinoids and epidermal stimulants” (Owen Biosciences, Inc., priority 2017, dated 2021).
